Assays:
Assay type in all cases: cell-based, human
RPMI-8226 = test: CellTiter cell proliferation assay, RPMI-8226 (multiple myeloma, irresponsive control); conditions: RPMI-8226 multiple myeloma control cell line
Description: (§1) ATL cell lines Hut102, ED40515, S1T, OATL4, and OATL9, HTLV-1 transformed cell lines MT-2, MT-4, and C8166, PTCL cell line Hut78, other T-cell Jurkat, MOLT4, HL60, and monocyte cell line K562 are laboratory stocks (Dr. Hidekatsu Iha, Oita University, and Prof. Kazuhiro Morishita, The University of Miyazaki). ATL cell lines ST1, KOB, KK1, and SO4 are gift from Dr. Hiroo Hasegawa, Nagasaki University). NCI-H929 and RPMI-8226 were purchased from American Type Culture Collection (ATCC: Manassas, Va.). Each cell line was maintained with RPMI-1640 culture media supplemented with 15% fetal bovine serum (FBS: Equitech-Bio Inc., Kerrville, Tex.), penicillin G (50 U/ml), and streptomycin (50 μg/ml). Antibiotics were purchased from Sigma-Aldrich Co. LLC. (St. Louis, Mo.).
(§2) Cells were plated in 24-well plates at 5×10^4 cells per 1.5 mL RPMI1640 and kept in 5% CO2 incubator for 24 hours (cell number should reach 1×10^5). […] After 10 minutes incubation at room temperature, the reaction mixture in 96-well plates was read by Glomax luminometer (Promega). Average values and standard deviation were obtained from four independent experiments.
(§3) Relative CellTiter values compared to untreated control cells at day 0 were plotted. […] In addition, OATL4 and KOB display 30% more reductions (see Table 2).

NCI-H929 = test: CellTiter cell proliferation assay, NCI-H929 (multiple myeloma, responsive control); conditions: NCI-H929 multiple myeloma control cell line
Description: as §1, §2, §3

Hut102 = test: CellTiter cell proliferation assay, Hut102 (ATL cell line)
Description: as §1, §2, §3
(§4) The CellTiter Assay was performed the same way as in Section 6.3, Example 3. Standard deviation was calculated from four experiments.

OATL4 = test: CellTiter cell proliferation assay, OATL4 (ATL cell line); conditions: see Table 2
Description: as §1, §2, §3

KOB = test: CellTiter cell proliferation assay, KOB (ATL cell line); conditions: see Table 2
Description: as §1, §2, §3

MT-4 = test: CellTiter cell proliferation assay, MT-4 (HTLV-1 transformed)
Description: as §1, §2, §3

HuT78 = test: CellTiter cell proliferation assay, HuT78 (HTLV-1 negative T-cell line); conditions: 10 μM lenalidomide for three days
Description: as §1, §2
Relative CellTiter values compared to untreated control cells at day 0 were plotted. […]
as §4

MOLT4 = test: CellTiter cell proliferation assay, MOLT4; conditions: MOLT-4; see Table 2
Description: as §1, §2, §3

[1] = tested on: cell line 5 (ATL cell line); test: Lenalidomide sensitivity of cell types of Example 2, cell line 5
Description: (§5) Twenty-three types of cells from, e.g., ATL cell lines, lymphoma cell lines, leukemia cell lines, healthy peripheral blood mononuclear cells (PBMCs), and human T-lymphotropic virus 1 (HTLV-1) carrier's PBMCs are employed in this example.

[2] = tested on: cell line 6 (ATL cell line); test: Lenalidomide sensitivity of cell types of Example 2, cell line 6
Description: as §5

[3] = tested on: cell line 12 (ATL cell line); test: Lenalidomide sensitivity of cell types of Example 2, cell line 12
Description: as §5

[4] = tested on: cell lines 1-4, 7, 10-11, and 13-23; test: Lenalidomide sensitivity of cell types of Example 2, other cell lines
Description: as §5

[5] = Homo sapiens, HuT-102, read-out: remaining activities (cell proliferation activity)

Nc1cccc2c1CN(C1CCC(=O)NC1=O)C2=O (centres unmarked) [lenalidomide, 1-oxo-2-(2,6-dioxopiperidin-3-yl)-4-aminoisoindoline]
response against lenalidomide treatment (FIG. 3) (RPMI-8226): insensitive
response against lenalidomide treatment (FIG. 3) (NCI-H929): sensitive
activity at 0.1 µM (Hut102; [5]): 64.2%
activity at 1 µM (Hut102; [5]): 68.3%
activity at 10 µM (Hut102; [5]): 46%
activity at 100 µM (Hut102; [5]): 53%
time-dependent cell growth (remaining growth activities, FIG. 4) (Hut102; HuT102, 10 μM lenalidomide for three days): significant decrease in cell growth
reductions of cell proliferation activity (OATL4): ≥ 30%
growth inhibition (KOB): 30%
reductions of cell proliferation activity (KOB): ≥ 30%
sensitivity to lenalidomide (MT-4): moderate sensitive
time-dependent cell growth (remaining growth activities, FIG. 4) (HuT78): almost unchanged
growth inhibition (MOLT4): 30%
sensitivity to lenalidomide [1]: highly-sensitive
sensitivity to lenalidomide [2]: weak/moderate-sensitive
sensitivity to lenalidomide [3]: weak/moderate-sensitive
sensitivity to lenalidomide [4]: intense tolerance

From US10338077B2, “Methods for determining drug efficacy for treatment of cancer ration of cereblon associated proteins” (Celgene Corporation, priority 2015, dated 2019)
